Assay [1] addresses T1, Sialidase (Clostridium perfringens, UniProt P10481).
T1 sequence (P10481 whole entry): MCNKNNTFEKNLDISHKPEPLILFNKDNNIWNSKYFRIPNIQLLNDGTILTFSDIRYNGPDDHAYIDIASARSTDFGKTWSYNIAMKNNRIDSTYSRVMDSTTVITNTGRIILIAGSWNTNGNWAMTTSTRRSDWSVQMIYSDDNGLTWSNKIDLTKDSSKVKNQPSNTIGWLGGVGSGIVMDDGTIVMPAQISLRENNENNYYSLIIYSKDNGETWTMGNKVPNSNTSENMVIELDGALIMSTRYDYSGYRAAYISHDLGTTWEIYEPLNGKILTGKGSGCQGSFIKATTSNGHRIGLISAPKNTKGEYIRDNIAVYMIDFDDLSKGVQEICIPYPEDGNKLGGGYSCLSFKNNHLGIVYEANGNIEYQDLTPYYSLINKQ
Put plainly: (§1) Inhibition of Clostridium perfringens neuraminidase using 4-methylumbelliferyl-alpha-D-N-acetylneuraminic acid sodium salt hydrate as substrate by fluorimetry.

Assay [2] addresses T2, Sialidase (Clostridium perfringens) (UniProt P10481).
T2 sequence (whole entry): T1 sequence (P10481 whole entry)
The assay is described as §1.

Assay [3] has as its target T1, Sialidase. Kind of assay: Non-competitive inhibition of Clostridium perfringens neuraminidase using 4-methylumbelliferyl-alpha-D-N-acetylneuraminic acid sodium salt hydrate as substrate by Dixon plot method.

SMILES strings stand for the structures.

`CC(C)=CCc1cc(-c2coc3cc(O)cc(O)c3c2=O)c(CC=C(C)C)c(O)c1O`: the IC50 – broadly, the concentration at which inhibition is half-maximal – on Sialidase [1] worked out at 7.85 µM. The inhibition entry in assay [2] was “Dose-dependent effect”. The Ki (in general, a dissociation constant, usually derived from enzyme kinetics or from competition with a known ligand) on Sialidase [3] came out at 7.86 µM.
For `CC(C)=CCc1c(-c2coc3cc(O)cc(O)c3c2=O)cc2c(c1O)OC(C)(C)C=C2`, the IC50 at Sialidase [1] worked out at 56.8 µM. Further, the inhibition result in assay [2] is “Dose-dependent effect”. In addition, the inhibition constant (Ki) on Sialidase [3] was 53 µM.
Consider `CC(C)=CCc1c(O)c(CC=C(C)C)c2occ(-c3ccc(O)cc3)c(=O)c2c1O`, for which, on Sialidase [1], the IC50 was determined as 4.04 µM. In addition, the inhibition entry in assay [2] was “Dose-dependent effect”. For the same compound, the inhibition constant Ki on Sialidase [3] amounted to 4.29 µM.
In the case of `CC(C)=CCc1c2c(c(O)c3c(=O)c(-c4ccc(O)c(O)c4)coc13)C=CC(C)(C)O2` [AURICULASIN], at Sialidase [1], the concentration for half-maximal inhibition (IC50) was 0.3 µM. The inhibition result in assay [2] was “Dose-dependent effect”. Moreover, the Ki at Sialidase [3] was found to be 0.13 µM.
On to `CC(C)=CCc1c(O)c(CC=C(C)C)c2occ(-c3ccc(O)c(O)c3)c(=O)c2c1O`, for which the concentration for half-maximal inhibition (IC50) at Sialidase [1] is 1.07 µM. Also, the inhibition entry in assay [2] was “Dose-dependent effect”. At Sialidase [3], the Ki came to 1.02 µM.
`O=c1c(-c2ccc(O)cc2)coc2cc(O)cc(O)c12` [GENISTEIN]: at Sialidase [1], the IC50 is 12 µM.
As to `C=CC(C)(C)C1=Cc2c(c(CC=C(C)C)c3occ(-c4ccc(O)c(O)c4)c(=O)c3c2O)OC1(C)C`, the half-inhibitory concentration (IC50) on Sialidase [1] came out at 1.63 µM. Moreover, in assay [2], the inhibition result was “Dose-dependent effect”. In addition, the inhibitory constant (Ki) on Sialidase [3] is 1.36 µM.
Turning to `CC(C)=CCc1c2c(c3occ(-c4ccc(O)cc4)c(=O)c3c1O)C=CC(C)(C)O2` [OSAJIN], at Sialidase [1], the 50% inhibitory concentration (IC50) is 3.06 µM. In addition, in assay [2], the inhibition entry is “Dose-dependent effect”. Moreover, at Sialidase [3], the Ki stood at 3.21 µM.
Regarding `C=CC(C)(C)C1=Cc2c(c(CC=C(C)C)c3occ(-c4ccc(O)cc4)c(=O)c3c2O)OC1(C)C`, at Sialidase [1], the concentration for half-maximal inhibition (IC50) came to 7.9 µM. Moreover, in assay [2], the inhibition result is “Dose-dependent effect”. In addition, the inhibition constant Ki on Sialidase [3] stood at 7.27 µM.
For `COc1cc(-c2coc3c(CC=C(C)C)c(O)c(CC=C(C)C)c(O)c3c2=O)ccc1O` [FLEMINGSIN] the same measures were 3.75 µM, “Dose-dependent effect” and 3.68 µM.

(Values after ChEMBL document CHEMBL2440025, “Bacterial neuraminidase inhibitory effects of prenylated isoflavones from roots of Flemingia philippinensis” (Bioorg Med Chem, 2013).)
